Results reported in paper PMC7909954 (eLife, 2021).
Read-outs that look alike come from different tables or passages of the source.

Assays:
[1] = target: T1, mDOR (Mus musculus, UniProt P32300); assay: biochemical; conditions: read-out: Emax mDOR [35S]GTPγS
[2] = target: T1, mDOR; assay: cell-based
[3] = target: T2, KOR (Homo sapiens, UniProt P41145); assay: cell-based
[4] = target: T3, mKOR (Mus musculus, UniProt P33534); assay: biochemical
[5] = target: T4, rKOR (Rattus norvegicus, UniProt P34975)
T4 sequence (P34975 whole entry): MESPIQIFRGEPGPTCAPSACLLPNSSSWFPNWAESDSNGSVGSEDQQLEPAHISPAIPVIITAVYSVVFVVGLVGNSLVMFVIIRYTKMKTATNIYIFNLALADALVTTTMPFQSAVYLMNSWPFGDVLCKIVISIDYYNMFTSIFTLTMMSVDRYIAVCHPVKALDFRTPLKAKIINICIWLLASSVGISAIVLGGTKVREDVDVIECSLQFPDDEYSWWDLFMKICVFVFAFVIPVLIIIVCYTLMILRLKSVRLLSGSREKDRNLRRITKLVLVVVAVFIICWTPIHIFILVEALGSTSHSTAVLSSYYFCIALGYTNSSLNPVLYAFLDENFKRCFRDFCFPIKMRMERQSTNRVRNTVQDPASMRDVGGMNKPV

[6] = target: T5, mMOR (Mus musculus, UniProt P42866); assay: cell-based
T5 sequence (P42866 whole entry): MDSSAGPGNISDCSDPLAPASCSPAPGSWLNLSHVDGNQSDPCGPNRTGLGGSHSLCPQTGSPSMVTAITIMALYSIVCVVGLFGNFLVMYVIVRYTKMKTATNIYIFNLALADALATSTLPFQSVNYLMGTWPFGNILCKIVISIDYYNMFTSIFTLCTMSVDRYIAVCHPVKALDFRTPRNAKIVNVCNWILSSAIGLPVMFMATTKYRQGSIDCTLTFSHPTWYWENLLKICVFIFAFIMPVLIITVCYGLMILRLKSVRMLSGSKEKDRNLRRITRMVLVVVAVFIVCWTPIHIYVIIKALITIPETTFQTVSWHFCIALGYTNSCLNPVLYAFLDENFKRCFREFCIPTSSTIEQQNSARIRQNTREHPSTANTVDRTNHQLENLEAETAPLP

[7] = target: T3, mKOR; assay: biochemical; remark: listed apart in the source
[8] = target: T6, DOR (Homo sapiens, UniProt P41143); assay: cell-based
T6 sequence (P41143 whole entry): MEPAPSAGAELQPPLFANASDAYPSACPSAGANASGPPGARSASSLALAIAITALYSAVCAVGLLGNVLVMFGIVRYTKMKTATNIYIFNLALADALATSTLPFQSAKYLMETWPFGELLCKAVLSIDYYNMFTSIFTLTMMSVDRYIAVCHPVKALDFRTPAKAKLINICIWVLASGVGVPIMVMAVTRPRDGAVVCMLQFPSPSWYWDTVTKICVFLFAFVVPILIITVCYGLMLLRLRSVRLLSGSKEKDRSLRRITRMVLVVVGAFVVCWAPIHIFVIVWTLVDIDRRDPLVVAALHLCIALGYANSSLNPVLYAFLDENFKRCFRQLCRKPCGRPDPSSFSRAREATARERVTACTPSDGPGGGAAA

[9] = target: T7, MOR (Homo sapiens, UniProt P35372); assay: cell-based
T7 sequence (P35372 whole entry): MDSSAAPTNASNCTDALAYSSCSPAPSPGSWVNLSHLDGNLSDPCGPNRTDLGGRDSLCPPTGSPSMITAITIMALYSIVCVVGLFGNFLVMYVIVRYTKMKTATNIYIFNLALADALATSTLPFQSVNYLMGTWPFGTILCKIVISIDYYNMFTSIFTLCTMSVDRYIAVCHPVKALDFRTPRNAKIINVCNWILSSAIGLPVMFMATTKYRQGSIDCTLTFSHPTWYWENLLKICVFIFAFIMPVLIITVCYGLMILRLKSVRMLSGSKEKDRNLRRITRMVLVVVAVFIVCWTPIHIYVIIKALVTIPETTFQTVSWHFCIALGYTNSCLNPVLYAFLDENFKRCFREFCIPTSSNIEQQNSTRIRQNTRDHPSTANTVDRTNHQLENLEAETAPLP

[10] = target: T5, mMOR; type: cell-based; set-up: expressed in transfected cells; host or cells: HEK-293T
[11] = target: T7, MOR; assay: cell-based; remark: listed apart in the source
[12] = target: T4, rKOR; assay: cell-based; conditions: HEK-293T, read-out: Emax% arrestin recruitment (BRET) rKOR
[13] = target: T6, DOR; assay: cell-based; remark: listed apart in the source
[14] = target: T7, MOR
[15] = target: T2, KOR
[16] = target: T4, rKOR; assay: cell-based; conditions: HEK-293T, read-out: Emax% G protein activation (BRET) rKOR
[17] = target: T1, mDOR; assay: cell-based; remark: listed apart in the source
[18] = target: T5, mMOR; assay: biochemical
[19] = target: T5, mMOR; assay: biochemical; remark: listed apart in the source
[20] = target: T2, KOR; assay: cell-based; conditions: EC50 cAMP inhibition hKOR
[21] = target: T5, mMOR; assay: cell-based; set-up: expressed in transfected cells; host or cells: HEK-293T
[22] = transduction coefficient log(T/KA)

T1 sequence (P32300 whole entry): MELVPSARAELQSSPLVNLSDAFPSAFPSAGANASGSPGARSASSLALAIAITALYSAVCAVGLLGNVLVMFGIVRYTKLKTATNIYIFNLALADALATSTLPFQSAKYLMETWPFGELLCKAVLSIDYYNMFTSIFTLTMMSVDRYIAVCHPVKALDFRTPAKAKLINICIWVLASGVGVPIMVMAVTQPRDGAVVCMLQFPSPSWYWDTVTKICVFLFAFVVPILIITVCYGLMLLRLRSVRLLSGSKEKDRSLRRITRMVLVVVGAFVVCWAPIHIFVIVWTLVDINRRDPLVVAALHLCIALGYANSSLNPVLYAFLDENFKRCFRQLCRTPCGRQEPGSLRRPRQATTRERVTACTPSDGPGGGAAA
T2 sequence (P41145 whole entry): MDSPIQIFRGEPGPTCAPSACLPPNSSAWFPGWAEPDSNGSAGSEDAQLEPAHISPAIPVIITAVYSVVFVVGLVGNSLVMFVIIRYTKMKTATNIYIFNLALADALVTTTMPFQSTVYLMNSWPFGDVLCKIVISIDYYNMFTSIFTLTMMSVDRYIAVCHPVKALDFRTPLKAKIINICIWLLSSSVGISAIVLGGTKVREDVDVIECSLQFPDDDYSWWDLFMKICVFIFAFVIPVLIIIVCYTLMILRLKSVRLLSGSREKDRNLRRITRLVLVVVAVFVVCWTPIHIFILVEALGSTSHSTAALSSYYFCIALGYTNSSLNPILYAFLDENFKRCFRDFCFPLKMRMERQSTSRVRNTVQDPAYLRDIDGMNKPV
T3 sequence (P33534 whole entry): as the sequence (P34975 whole entry) above, with E11D, A17S, P51S, V308A counted along it

`O=C(NC1C=CC2C3Cc4ccc(O)c5c4C2(CCN3CC2CC2)C1O5)c1cccc(I)c1` (stereo not shown) [MP1104] showed an Emax [1] of 88%, an EC50 ([2]; EC50 G protein activation (BRET) mDOR) of 1.4 nM and an Emax ([2]; HEK-293T, read-out: Emax% G protein activation (BRET) mDOR) of 91 ± 1.7%. The EC50 ([3]; EC50 arrestin recruitment (Tango) hKOR) was 0.0394 nM, the Emax ([3]; HTLA, read-out: Emax% arrestin recruitment (Tango) hKOR) was 117 ± 2% and the EC50 ([4]; EC50 mKOR [35S]GTPγS, ± SEM) was 0.027 ± 0.002 nM. For the same compound, the Emax ([4]; read-out: Emax mKOR [35S]GTPγS) was 104 ± 2%, the “Log RA BRET-G rKOR” value [5] was 10.07±0.047 and the “LogRA BRET-Arr rKOR” value [5] was 8.84±0.033. For the same compound, the “ΔΔlog RA (BRETG-BRETArr) rKOR” value [5] was -0.64±0.079, the “Bias factor (BRETG-BRETArr) rKOR” value ([5]; vs U50,488h) was 0.23 and the “ΔlogRA BRET-G rKOR” value ([5]; vs U50,488h) was 1.067±0.064. The “ΔlogRA BRET-arr rKOR” value ([5]; vs U50,488h) was 1.702±0.047, the EC50 ([6]; EC50 G protein activation (BRET) mMOR) was 0.66 nM and the Emax ([6]; HEK-293T, read-out: Emax% G protein activation (BRET) mMOR) was 62 ± 2%. It also gave a Ki [7] of 0.0064 nM, an EC50 ([8]; EC50 arrestin recruitment hDOR, Tango) of 3.73 nM and an Emax ([8]; HTLA, read-out: Emax% arrestin recruitment hDOR) of 189 ± 5.5%. For the same compound, the EC50 [9] was 0.573 nM, the Emax ([9]; HTLA, read-out: Emax% arrestin recruitment (Tango) hMOR) was 90 ± 2.28% and the “Bias factor (BRETG-BRETArr) mMOR” value [10] was 0.11. The “Log RA BRET-G mMOR” value [10] was 8.917±0.12, the “LogRA BRET-Arr mMOR” value [10] was 9.196±0.06 and the “ΔlogRA BRET-G mMOR” value [10] was 0.357±0.173. The “ΔlogRA BRET-arr mMOR” value [10] was 1.323±0.09, the “ΔΔlog RA (BRETG-BRETArr) mMOR” value [10] was -0.966±0.195 and the EC50 ([11]; EC50 cAMP inhibition hMOR) was 0.074 nM. For the same compound, the Emax ([11]; HEK-293T, read-out: Emax% cAMP inhibition hMOR) was 94 ± 1%, the Emax [12] was 89 ± 2.6% and the EC50 ([13]; EC50 cAMP inhibition hDOR) was 0.4 nM. The Emax ([13]; HEK-293T, read-out: Emax% cAMP inhibition hDOR) was 99 ± 1.1%, the “Bias factor (cAMP-Tango) hMOR” value [14] was 0.58 and the “Log RA cAMP hMOR” value [14] was 10.12±0.009. The “LogRA Tango hMOR” value [14] was 9.18±0.013, the “ΔlogRA Tango hMOR” value [14] was 1.26±0.019 and the “ΔlogRA cAMP hMOR” value [14] was 1.018±0.012. For the same compound, the “ΔΔlog RA (cAMP-Tango) hMOR” value [14] was -0.24±0.022, the “ΔΔlog RA (cAMP-Tango) hKOR” value [15] was -0.81±0.055 and the “Bias factor (cAMP-Tango) hKOR” value ([15]; >1 G protein bias, <1 arrestin bias, vs U50,488h) was 0.15. The “Log RA cAMP hKOR” value [15, 22] was 11.44±0.034, the “LogRA Tango hKOR” value [15, 22] was 10.45±0.019 and the “ΔlogRA Tango hKOR” value ([15]; vs U50,488h) was 2.16±0.027. The “ΔlogRA cAMP hKOR” value ([15]; vs U50,488h) was 1.35±0.048, the Emax [16] was 93 ± 1% and the EC50 ([17]; EC50 arrestin recruitment (BRET) mDOR) was 26 nM. It also gave an Emax ([17]; HEK-293T, read-out: Emax% arrestin recruitment (BRET) mDOR) of 40 ± 1.7%, an EC50 ([18]; EC50 mMOR [35S]GTPγS, ± SEM) of 0.21 ± 0.03 nM and an Emax ([18]; read-out: Emax mMOR [35S]GTPγS) of 103 ± 2%. It also gave a Ki [19] of 0.021 nM, an EC50 [20] of 0.00327 nM and an EC50 [21] of 0.285 nM. It also gave an Emax ([21]; HEK-293T, read-out: Emax% arrestin recruitment (BRET) mMOR) of 53 ± 1.6%.
